Experimental data taken from patent publication US20220226323A1, “ALDOSE REDUCTASE INHIBITORS FOR TREATMENT OF PHOSPHOMANNOMUTASE 2 DEFICIENCY” (Applied Therapeutics, Inc., priority 2019, published 2022).

How the values were obtained:
PMM2 = PMM2 enzyme activity in PMM2-CDG patient-derived fibroblasts; format: cell-based, human; details: 50 nM, 24 hours; four PMM2-CDG patient-derived fibroblast lines; vs DMSO-treated mutant cell line
Method: Cells were seeded in a 96-well plate, homogenization buffer (20 mM HEPES, 25 mM KCl, 1 mM DTT, 10 μg/ml leupeptin, 10 μg/ml antipain) was added and plates were freeze-thawed at —80° C. twice to lyse cells. Reaction buffer (50 mM HEPES, 5 mM MgCl2, 0.5 mM NADP+, 10 μg/ml yeast glucose-6-phosphate dehydrogenase, 10 μM glucose-1,6-bisphosphate, 10 μg/ml phosphoglucoisomerase, 5.25 μg/ml phosphomannoseisomerase) containing 200 μM mannose-1-phosphate as substrate was then added to the wells of each plate. Plates were incubated at 37° C. for 270 min and absorbance was read at 340 nm at 30, 60, 90, 120, 150, 180, 210, 240 and 270 min by removing the plate from incubation at the respective time points. All incubations were carried out with or without substrate (mannose-1-phosphate) and the difference between the two values was calculated as the enzymatic activity. Enzyme activity was normalized to total lysate protein levels. Enzyme activities of fibroblasts in the absence of an AR inhibitor were determined. […] Following this, enzyme activity was assessed as described above. […] For ease of analysis, the enzyme activity (as represented by NADPH concentration) of each treatment condition was compared with the activity of a baseline, untreated mutant cell line at the last time point.

[1] = CNS penetration (statement)

O=C(O)Cc1nn(Cc2nc3cc(C(F)(F)F)ccc3s2)c(=O)c2cscc12 [Compound B]
PMM2 enzyme activity in patient-derived fibroblast cell lines (PMM2): increased PMM2 enzyme activity in each of the four patient-derived cell lines tested
CNS penetration [1]: CNS penetrant
